Measured values taken from US20260083769A1, “2-Aminopropane-1,3-Diol-Capped Cationic Peptoids for Nucleic Acid Delivery” (NUTCRACKER THERAPEUTICS, INC., priority 2022, published 2026).
“Also recorded” adds a separate entry of the source. Where a SMILES comes first, the peptide text is derived from it. [ ]: non-standard residue; d: D form. N(2-ethylhexyl)Gly = CCCCC(CC)CNCC(=O)O; Gly(N-dodecyl) = CCCCCCCCCCCCNCC(=O)O; N(CH(CH2OH)2)Gly = O=C(O)CNC(CO)CO; NHexGly = CCCCCCNCC(=O)O

Test system: BALB/c mice
Experiment: In vivo fLuc mRNA expression after IV dose, whole body and organ bioluminescence
Details: for fLuc (luciferase) expression in vivo: BALB/c mice, IV, luminescence 6 hours after dose, lipid block screen; for luciferase expression in vivo, comparison of monomer order isomers: Compound 31 versus Compound 41
Description: In one particular instance, peptoids disclosed herein were formulated into delivery vehicles by first dissolving in ethanol along with DSPC, cholesterol, and DMG-PEG2000 at weight ratio of 20:1.8:7.2:1.8 (Formulation D22 in Table 3, above), then mixed with firefly luciferase (fLuc) mRNA dissolved in an aqueous buffer at a volume ratio of 1:3 via microfluidic nanoprecipitation on a turbulent mixing device, resulting in small, low dispersity particles. Physical particle properties were characterized. Delivery vehicles with initial sizes larger than 120 nm were not brought forward into in vivo screening as liver fenestrae primarily accommodate LNPs sized under 100 nm. In vivo expression of delivery vehicles comprising peptoids with varied headgroups was evaluated using fLuc expression in BALB/c mice 6 hours after IV dose (FIG. 1). […] The aminoethyl and aminopropyl headgroups both show preferential expression in lung (FIG. 2), potentially due to the high basicity of the pendant primary amine, as groups with higher pKas are known to accumulate in that organ. […] While spleen and lung selectivity merit further optimization for future therapeutic applications, liver-selective targets were used for further studies herein to prepare for systemic delivery of antibody targets and maximize their serum expression with anti-RSV cargo.
Intravenous administration. The delivery vehicle complexes disclosed herein are effective for in vivo administration of Fluc mRNA to BALB/c mice through multiple routes of administration. In general, delivery system complexes were administered at a dose of 0.5 mg/kg via a tail-vein injection, and the resulting bioluminescence was quantified after 6 hours. Organ-specific bioluminescence was quantified by sacrificing the treated animal, dissecting out the organs of interest, and separately quantifying the resulting bioluminescence
In one particular instance, to investigate how the peptoid lipid block impacts in vivo expression, delivery vehicles with diameter larger than 120 nm were excluded and remaining candidates were administered IV to BALB/c mice. Luminescence was measured after 6 hours and the resulting expression in liver, lung and spleen were quantified. Even without changing the cationic headgroup, luciferase expression spanned 4 orders of magnitude as a result of altering the lipid block in this series. […] In vivo expression of all candidates was then fit to a multi-parameter model containing the 4 input parameters to understand the individual contributions of each factor to overall performance. […] Contour plots of the impact of these factors on expression (all using Ehx as the branched/unsaturated monomer) are shown in FIG. 4.
For imaging studies, female BALB/c mice (6-8 weeks old) were obtained and acclimatized for a minimum of 3 days prior to experiments. The animals were maintained on a 12 hour light cycle in a temperature and humidity controlled room. A daily health check was performed as well as food and water check. For dosing, mice were injected with 2.5 μg fLuc mRNA-containing delivery vehicles intravenously in 100 μL total injection volume. At 6 hours post-injection, mice were anesthetized with isoflurane, and injected intraperitoneally with 30 mg/mL D-luciferin at a dose of 10 μL per gram bodyweight intraperitoneally. Imaging was done 10 minutes post D-luciferin injection using an IVIS® Spectrum Imaging System. Immediately after in vivo imaging, mice were terminally bled by cardiac puncture and euthanized. The organs of interest were harvested, placed in black 24-well plates, and imaged. Living Image® software was used to quantify the total photon flux in regions of interest. For secreted protein studies, mice were injected with aRSV mRNA-containing delivery vehicles intravenously in 100 μL total injection volume. Mice were euthanized after 24 hours, with serum collection at 6 and 24 hours post-injection. […]

`CCCCCCN(CC(N)=O)C(=O)CN(CC(CC)CCCC)C(=O)CN(CC(CC)CCCC)C(=O)CN(CCCCCC)C(=O)CN(CC(CC)CCCC)C(=O)CN(CC(CC)CCCC)C(=O)CNC(CO)CO` (centres unmarked) [Compound 12] (H-[N(CH(CH2OH)2)Gly][N(2-ethylhexyl)Gly][N(2-ethylhexyl)Gly][NHexGly][N(2-ethylhexyl)Gly][N(2-ethylhexyl)Gly][NHexGly]-NH2) was tested, and the “fLuc (luciferase) expression in vivo” value was “top expressers; also recorded: highest overall fLuc expression”.

For `CCCCCCCCCCCCN(CC(=O)N(CC(=O)N(CC(=O)N(CCCCCCCCCCCC)CC(=O)N(CC(=O)N(CC(N)=O)CC(CC)CCCC)CC(CC)CCCC)CC(CC)CCCC)CC(CC)CCCC)C(=O)CNC(CO)CO` (centres unmarked) [Compound 31] (H-[N(CH(CH2OH)2)Gly][Gly(N-dodecyl)][N(2-ethylhexyl)Gly][N(2-ethylhexyl)Gly][Gly(N-dodecyl)][N(2-ethylhexyl)Gly][N(2-ethylhexyl)Gly]-NH2), the “luciferase expression in vivo, comparison of monomer order isomers” value was “within error”.

For `CCCCCCCCCCCCN(CC(=O)N(CC(N)=O)CC(CC)CCCC)C(=O)CN(CCCCCC)C(=O)CN(CC(CC)CCCC)C(=O)CN(CCCCCCCCCCCC)C(=O)CN(CCCCCC)C(=O)CNC(CO)CO` (centres unmarked) [Compound 34] (H-[N(CH(CH2OH)2)Gly][NHexGly][Gly(N-dodecyl)][N(2-ethylhexyl)Gly][NHexGly][Gly(N-dodecyl)][N(2-ethylhexyl)Gly]-NH2), the “fLuc (luciferase) expression in vivo” value was “top expressers”.

In the case of `CCCCCCCCCCCCN(CC(=O)N(CC(=O)N(CC(=O)N(CCCCCCCCCCCC)CC(=O)N(CC(N)=O)CC(CC)CCCC)CC(CC)CCCC)CC(CC)CCCC)C(=O)CN(CC(CC)CCCC)C(=O)CNC(CO)CO` (centres unmarked) [Compound 41] (H-[N(CH(CH2OH)2)Gly][N(2-ethylhexyl)Gly][Gly(N-dodecyl)][N(2-ethylhexyl)Gly][N(2-ethylhexyl)Gly][Gly(N-dodecyl)][N(2-ethylhexyl)Gly]-NH2), the “fLuc (luciferase) expression in vivo” value was “top expressers” and the “luciferase expression in vivo, comparison of monomer order isomers” value was “within error”.
